The record followed here is US20120134933A1, “USE OF HIGH-DOSES OF MONOMERIC CONTRAST MEDIUM CONTAINING IODINE IN X-RAY DIAGNOSTICS, IN PARTICULAR IN INTERVENTIONAL X-RAY DIAGNOSTICS AND IN RADIATION THERAPY ASSISTED BY CONTRAST MEDIA CONTAINING IODINE” (BAYER PHARMA AKTIENGESELLSCHAFT, priority 2009, published 2012).

The structures appear in SMILES notation.

Type in all cases: in vivo, Wistar Han rats
One data set has as its system tubular cells. Kind of data set: Vacuolization in the kidney 24 hours after injection of XCM (histology of paraffin sections). The conditions noted are these: rat, 4 g of iodine per kg of BW i.v.; for degree of vacuolization in the kidney (in words): compared among monomeric XCMs. The protocol:
(§1) For the study, use was made of the following XCMs, each obtained from their producer. The monomeric XCMs investigated were iopromide 300 (Bayer Vital, Leverkusen), iomeprol 300 (Altana, Konstanz, Germany), and iohexyl 350 (Omnipaque, GE Healthcare, Munich, Germany). For comparison, Isovist 300 (Bayer Vital, Leverkusen) and iodixanol 320 and iodixanol 270 (Visipaque, GE Healthcare, Munich, Germany), two dimeric XCMs, were also included in the study. The XCMs were injected in one dose of 4 g per kg of body weight (BW). As with all toxicological issues, it should be noted that the conversion to the human dose has to be based on body surface area. Thus, 4 g of iodine per kg of BW in the rat correspond to about 0.6 g of iodine per kg of BW in humans.
(§2) Wistar Han (CRL: WI) rats (male; 230-300 g) were obtained from Charles River (Sulzfeld, Germany). The animals were kept under normal laboratory conditions at a temperature of 22° C. and a night/day rhythm of 12 hours. The animals had access to standard feed and water ad libitum. The animals were kept and treated in accordance with the German animal welfare guidelines.
(§3) The respective XCMs were intravenously (i.v.) injected in one dose of 4 g of iodine per kg of BW (corresponds to 0.6 g of iodine per kg of BW in humans) into the tail vein. The XCMs were manually injected as a bolus, followed by a 0.2 ml bolus of saline solution. Each test group consisted of 6 test animals. The iodine concentrations in the kidneys were determined ex vivo by X-ray fluorescence analysis (XFA). 24 hours after the XCM injection, the animals were sacrificed and both kidneys were removed. The kidneys were lysed in 10% KOH, and the iodine concentration in the sample was subsequently determined by XFA. The iodine concentrations in the renal cortex were determined 24 hours after the injection using a 64-slice CT scanner (Sensation 64, Siemens Medical Solutions, Erlangen, Germany). Scanner settings (80 kV, 120 mAseff) were used for all investigations, and the reconstructions were carried out with an image field of 70×70 mm and a thickness of 1 mm The X-ray attenuation in Hounsfield units (HU) was determined in the cortex of the kidney in 3 independent regions of interest (ROI) (FIG. 2). All data were carried out by two independent blinded readers.
To determine the degree of vacuolization, a kidney was removed 24 after the injection of the XCMs and a medial piece of tissue was fixed in formaldehyde and embedded in paraffin. The microtome sections were stained with hematoxylin, and the degree of vacuolization was determined. The determination of the degree of vacuolization was carried out in a blinded experiment by Dr. Haider, Institut für Tierpathologie [Institute for Animal Pathology].

A short description of data set [1]: Renal iodine content 24 hours after injection of XCM, X-ray fluorescence analysis (XFA) of lysed kidneys. The conditions noted are these: rat, 4 g of iodine per kg of BW i.v., mean +/- SD, 6 animals. The protocol: as §1, §2
as §3, with “The XCMs were manually injected as a bolus, followed by a 0.2 ml bolus of saline solution. Each test group consisted of 6 test animals.” left out, “24 hours after the XCM injection, the animals were sacrificed and both kidneys were removed.” left out

Data set [2] is described as follows: Renal cortex iodine content 24 hours after injection of XCM, X-ray attenuation by CT. The conditions noted are these: rat, 4 g of iodine per kg of BW i.v., 80 kV, mean +/- SD, 6 animals. The protocol: as §1, §2
as §3, with “The XCMs were manually injected as a bolus, followed by a 0.2 ml bolus of saline solution. Each test group consisted of 6 test animals.” left out, “24 hours after the XCM injection, the animals were sacrificed and both kidneys were removed.” left out

The mark [3] stands for this setting: of 6 animals, listed as Iopromide 300.
Where [4] appears, read: of 6 animals, listed as iopromide.

`CC(=O)N(CC(O)CO)c1c(I)c(C(=O)NCC(O)CO)c(I)c(C(=O)NCC(O)CO)c1I` (centres unmarked) [iohexyl 350]: the “degree of vacuolization in the kidney (in words)” value (shortened to “degree … (in words)”) in the data set with tubular cells is “increased vacuolization”. For the same compound, in the data set with tubular cells (of 6 animals), the “Moderate degree of vacuolization (number of animals)” value was 3 and the “Slight degree of vacuolization (number of animals)” value (shortened to “Slight degree of vacuolization”) stood at 3.
For the compound `CN(C(=O)CO)c1c(I)c(C(=O)NCC(O)CO)c(I)c(C(=O)NCC(O)CO)c1I` (centres unmarked) [iomeprol 300], in data set [1], the “iodine concentration in the kidney (XFA)” value is on record as 0.738+/−0.098 mg of iodine per g of kidney tissue. Moreover, the “degree … (in words)” value in the data set with tubular cells is listed as “increased vacuolization”. In addition, the “Slight degree of vacuolization” value is listed as “all the animals investigated” with tubular cells (of 6 animals) and 6 with tubular cells (of 6 animals, listed as Iomeprol 300). Also, the “X-ray attenuation in the renal cortex (CT)” value (shortened to “X-ray attenuation”) in data set [2] is on record as 45.0+/−5.9 HU.
`COCC(=O)Nc1c(I)c(C(=O)NCC(O)CO)c(I)c(C(=O)N(C)CC(O)CO)c1I` (centres unmarked) [iopromide 300, N,N′-bis(2,3-dihydroxypropyl)-2,4,6-triiodo-5-[(methoxyacetyl)amino]-N-methyl-1,3-benzenedicarboxamide]: the “iodine concentration in the kidney (XFA)” value in data set [1] was “significantly lowest iodine contents”. The “degree … (in words)” value with tubular cells is “lowest degree of vacuolization”. Besides, in the data set with tubular cells (setting [3]), the “No vacuolization (number of animals)” value is 2 and the “Slight degree of vacuolization” value turned out to be 4. In addition, in the data set on tubular cells (setting [4]), the “No vacuolization (number of animals)” value is “Two” and the “Slight degree of vacuolization” value is “four”. In addition, in data set [2], the “X-ray attenuation” value is recorded as “significantly lowest values”.
On to `CN(C(=O)CC(=O)N(C)c1c(I)c(C(=O)NC(CO)C(O)CO)c(I)c(C(=O)NC(CO)C(O)CO)c1I)c1c(I)c(C(=O)NC(CO)C(O)CO)c(I)c(C(=O)NC(CO)C(O)CO)c1I` (centres unmarked) [iotrolan 300], for which the “iodine concentration in the kidney (XFA)” value in data set [1] was 3.4+/−0.6 mg of iodine per g of kidney tissue. Moreover, the “X-ray attenuation” value in data set [2] is 217.2+/−29.4 HU.
